How the values were obtained:
Assay type in all cases: functional
Staphylococcus aureus [1] = assay: Bactericidal activity against Staphylococcus aureus ATCC 25923 assessed as log reduction in bacterial colonies preincubated for 10 mins followed by bacterial plating on Luria-Bertani plates and measured after 18 to 24 hrs relative to control
Staphylococcus aureus [2] = assay: Bactericidal activity against Staphylococcus aureus ATCC 25923 assessed as reduction in bacterial colonies preincubated for 5 mins followed by bacterial plating on Luria-Bertani plates and measured after 18 to 24 hrs relative to control; design: concentration or dose not given beside the values
Staphylococcus aureus [3] = assay: Bactericidal activity against Staphylococcus aureus ATCC 25923 assessed as log reduction in bacterial colonies preincubated for 5 mins followed by bacterial plating on Luria-Bertani plates and measured after 18 to 24 hrs relative to control
Escherichia coli [4] = assay: Bactericidal activity against Escherichia coli ATCC 25922 assessed as reduction in bacterial colonies preincubated for 10 mins followed by bacterial plating on Luria-Bertani plates and measured after 18 to 24 hrs relative to control; design: concentration or dose not given beside the values
Escherichia coli [5] = assay: Bactericidal activity against Escherichia coli ATCC 25922 assessed as reduction in bacterial colonies preincubated for 5 mins followed by bacterial plating on Luria-Bertani plates and measured after 18 to 24 hrs relative to control; design: concentration or dose not given beside the values
Staphylococcus aureus [6] = assay: Bactericidal activity against Staphylococcus aureus ATCC 25923 assessed as reduction in bacterial colonies preincubated for 10 mins followed by bacterial plating on Luria-Bertani plates and measured after 18 to 24 hrs relative to control; design: concentration or dose not given beside the values
Escherichia coli [7] = assay: Bactericidal activity against Escherichia coli ATCC 25922 assessed as log reduction in bacterial colonies preincubated for 5 mins followed by bacterial plating on Luria-Bertani plates and measured after 18 to 24 hrs relative to control
Escherichia coli [8] = assay: Bactericidal activity against Escherichia coli ATCC 25922 assessed as log reduction in bacterial colonies preincubated for 10 mins followed by bacterial plating on Luria-Bertani plates and measured after 18 to 24 hrs relative to control
Staphylococcus aureus [9] = assay: Bactericidal activity against Staphylococcus aureus ATCC 25923 assessed as reduction in bacterial colonies using initial inoculum of 4 x 10^7 CFU/ml preincubated for 5 mins followed by bacterial plating on Luria-Bertani plates and measured after 18 to 24 hrs relative to control; design: scale not given: the % may be the effect or the level left

| SMILES | log(activity) (Staphylococcus aureus [1]) | Activity (Staphylococcus aureus [2]) [%] | log(activity) (Staphylococcus aureus [3]) | Activity (Escherichia coli [4]) [%] | Activity (Escherichia coli [5]) [%] | Activity (Staphylococcus aureus [6]) [%] | log(activity) (Escherichia coli [7]) | log(activity) (Escherichia coli [8]) | Activity (Staphylococcus aureus [9]) [%] |
| --- | --- | --- | --- | --- | --- | --- | --- | --- | --- |
| CC1(C)C(=O)N(CCC[N+](C)(C)C)C(=O)N1Cl.[Cl-] | 0.6 | 11.8 | 0.05 | 99.3 | 42.2 | 75 | 0.24 | 2.18 | – |
| CC1(C)C(=O)N(CCC[N+](C)(C)CC(=O)[O-])C(=O)N1Cl | 6.83 | 34.3 | 0.18 | 100 | 86.7 | 100 | 0.88 | 6.63 | 15 |
| CC1(C)NC(=O)N(CCO)C1=O | 0 | 0 | 0 | 0 | 0 | 0 | 0 | 0 | – |
| CC1(C)NC(=O)N(CCC[N+](C)(C)CC(=O)[O-])C1=O | 0 | 0 | 0 | 0 | 0 | 0 | 0 | 0 | – |
| CC1(C)C(=O)N(CCO)C(=O)N1Cl | 6.83 | 100 | 6.83 | 100 | 100 | 100 | 6.63 | 6.63 | 99.8 |
| CC1(C)C(=O)N(CCC[N+](C)(C)CCCS(=O)(=O)[O-])C(=O)N1Cl | 0.29 | 19.8 | 0.1 | 89.9 | 25.1 | 49.1 | 0.13 | 1 | – |
| CC1(C)NC(=O)N(CCC[N+](C)(C)CCCS(=O)(=O)[O-])C1=O | 0 | 0 | 0 | 0 | 0 | 0 | 0 | 0 | – |
| CC1(C)NC(=O)N(CCC[N+](C)(C)C)C1=O.[Cl-] | 0 | 0 | 0 | 0 | 0 | 0 | 0 | 0 | – |

From ChEMBL document CHEMBL4325915, “Synthesis of zwitterionic N-chlorohydantoins for antibacterial applications” (2018)
